Laboratory results from US11571407B2, “Bicalutamide analogs or (S)-bicalutamide as exocytosis activating compounds for use in the treatment of a lysosomal storage disorder or glycogenosis” (BCN PEPTIDES, S.A., priority 2013, dated 2023).
Marks after values point to notes of the source that are not given here.

Key:
[1] = tested on: fibroblasts from patients affected by different lysosomal storage diseases; assay: Determination of glycosaminoglycans (GAGs), 1,9-dimethylmethylene blue (DMB) assay; assay type: cell-based, human; conditions: for Decrease of GAGs (%), Median: Table 5 median over the patients' fibroblasts; for Decrease of GAGs (%), Median / Decrease of GAGs (%): 72 h; for decrease of glycosaminoglycans (in words): fibroblasts from seven patients, 50 and 100 μM
Protocol: Fibroblasts from thirteen patients affected by seven different lysosomal storage diseases (Fabry, Gaucher, Hurler, Niemann-Pick type A/B, Sanfilippo A, Sanfilippo B and Tay-Sachs) were cultured in DMEM (Dulbecco's modified Eagles medium) with 10% fetal bovine serum and in the presence of antibiotics (penicillin and streptomycin), at 37° C. with 5% CO2. All reagents were purchased from PAA Laboratories (Velizy-Villacoublay, France). The fibroblasts of the patients were selected on the basis of availability of fibroblasts and measurable residual activity. The use of human samples was approved by the Ethical Committee of Hospital Clinic, Barcelona
Glycobiology. […] The fibroblasts were cultured in triplicate in 6-well plates and they were harvested 72 hours after treatment. DMB absorbance was measured in duplicate at 656 nm with a microplate reader (POLARstar Omega, BMG LABTECH, Offenburg, Germany).
Fibroblasts from three patients affected by Sanfilippo B disease and one patient affected by Hurler disease were treated with increasing concentrations of bicalutamide (racemic mixture at increasing concentrations of 0.01, 0.1, 1, 10 and 100 μM). Glycosaminoglycans (GAGs) levels were quantified with the 1,9-dimethylmethylene blue (DMB) assay.
Fibroblasts from seven patients affected by different diseases derived from lysosomal storage (three Sanfilippo B disease patients with different genotypes, one Sanfilippo A disease patient, one Tay-Sachs disease patient, one Niemann-Pick type A/B disease patient and one Hurler disease patient) were independently treated with different concentrations of (R)- and (S)-bicalutamide (50 and 100 μM).

[2] = cited from earlier work
[3] = Table 5 patient 1, Sanfilippo B fibroblasts, 50 μM
[4] = Table 5 patient 1, Sanfilippo B fibroblasts, 100 μM
[5] = Table 5 patient 2, Sanfilippo B fibroblasts, 50 μM
[6] = Table 5 patient 2, Sanfilippo B fibroblasts, 100 μM
[7] = Table 5 patient 3, Sanfilippo B fibroblasts, 50 μM
[8] = Table 5 patient 3, Sanfilippo B fibroblasts, 100 μM
[9] = Table 5 patient 4, Sanfilippo A fibroblasts, 50 μM
[10] = Table 5 patient 4, Sanfilippo A fibroblasts, 100 μM
[11] = Table 5 patient 5, Tay-Sachs fibroblasts, 50 μM
[12] = Table 5 patient 5, Tay-Sachs fibroblasts, 100 μM
[13] = Table 5 patient 6, Niemann-Pick AB fibroblasts, 50 μM
[14] = Table 5 patient 6, Niemann-Pick AB fibroblasts, 100 μM
[15] = Table 5 patient 7, Hurler fibroblasts, 50 μM
[16] = Table 5 patient 7, Hurler fibroblasts, 100 μM

Row | Compound | Decrease of GAGs (%), Median ([1]; 50 μM) | Decrease of GAGs (%), Median ([1]; 100 μM) | Decrease of GAGs (%) [1, 3] | Decrease of GAGs (%) [1, 4] | Decrease of GAGs (%) [1, 5] | Decrease of GAGs (%) [1, 6] | Decrease of GAGs (%) [1, 7] | Decrease of GAGs (%) [1, 8] | Decrease of GAGs (%) [1, 9] | Decrease of GAGs (%) [1, 10] | Decrease of GAGs (%) [1, 11] | Decrease of GAGs (%) [1, 12] | Decrease of GAGs (%) [1, 13] | Decrease of GAGs (%) [1, 14] | Decrease of GAGs (%) [1, 15] [%] | Decrease of GAGs (%) [1, 16] | decrease of glycosaminoglycans (in words) [1] | half life in plasma ([2]; in vivo) [week] | concentrations in plasma at the steady state relative to (S)-bicalutamide ([2]; steady state, (R)- versus (S)-bicalutamide) [times]
1 | C[C@@](O)(CS(=O)(=O)c1ccc(F)cc1)C(=O)Nc1ccc(C#N)c(C(F)(F)F)c1 [(S)-BICALUTAMIDE (1), (2S)-N-[4-cyano-3-(trifluoromethyl)phenyl]-3-[(4-fluorophenyl)sulfonyl]-2-hydroxy-2-methylpropanamide] | 18* % | 38* % | N.S. | 22* % | 18* % | 39* % | 15* % | 20* % | 27.4* % | 56* % | 31* % | 60* % | 24* % | 38* % | 0 | 0% | significant and dose-dependent decrease of glycoaminoglicans | – | –
2 | C[C@@](O)(CS(=O)(=O)c1ccc(F)cc1)C(=O)Nc1ccc(C#N)c(C(F)(F)F)c1 (single isomer, unassigned) [(R)-BICALUTAMIDE (2)] | 0% | 25* % | N.S. | 25* % | N.S. | N.S. | 0% | 33* % | 0% | 0% | N.S. | 45* % | N.S. | 41* % | 0 | 16* % | a decrease of GAGs levels in some cases, but with a lower intensity and not universally | 1 | 100
